In patent publication US7776862B2, “Pyridyl and phenyl substituted piperazine-piperidines with CXCR3 antagonist activity” (Schering Corporation, priority 2005, dated 2010) one finds IC50 data, which are given here for 59 molecules.

This test has as its target T1, human CXCR3 (N-delta 4) (Homo sapiens, UniProt P49682).
T1 construct: CD8 leader; Flag tag; expressed in transfected cells; membranes used
T1 sequence (P49682 5-368 limits assumed): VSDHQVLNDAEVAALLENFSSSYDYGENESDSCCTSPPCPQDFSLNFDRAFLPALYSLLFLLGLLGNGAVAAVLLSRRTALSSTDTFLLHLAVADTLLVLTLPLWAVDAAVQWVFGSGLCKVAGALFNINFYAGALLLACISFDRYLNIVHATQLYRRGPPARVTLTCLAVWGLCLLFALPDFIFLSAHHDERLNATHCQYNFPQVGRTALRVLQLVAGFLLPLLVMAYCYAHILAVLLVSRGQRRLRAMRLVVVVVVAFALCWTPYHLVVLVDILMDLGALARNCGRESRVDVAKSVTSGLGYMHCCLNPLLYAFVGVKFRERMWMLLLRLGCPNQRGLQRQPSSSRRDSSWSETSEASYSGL
The test can be described thus: Human CXCR3 (N-delta 4) scintillation proximity assay (SPA), [125I] IP-10 binding. The essentials:
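IP-10 and compound titrations added together. The receptor source was SPA beads bearing membranes from Ba/F3 cells transfected with human CXCR3 (N-delta 4) carrying a CD8 leader and Flag tag.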

The mark [1] stands for this setting: IC50 rating, Ba/F3-hCXCR3 (N-delta 4) membranes, 25 pM [125I] IP-10.

As a reminder, the IC50 is the concentration at which inhibition is half-maximal. Low readings indicate inhibition by little substance, high ones a need for much substance.

`C[C@H]1CN(c2ncc(C(N)=O)cc2Cl)CCN1C1CCN(Cc2ccc(Cl)cc2)CC1` [compound 281] registered an IC50 under setting [1] of 25 to 100 nM.

Consider `O=C(NCc1cccc(Cl)c1)c1cnc(N2CCN(C3CCN(Cc4ccc(F)cc4F)CC3)CC2)c(Cl)c1` [compound 28], for which the IC50 under setting [1] is more than 100 nM. The molecule `CC[C@H]1CN(c2ncc(C(N)=O)cc2Cl)CCN1C1CCN(C(=O)c2ccc(Cl)cc2)CC1` [compound 332] came in with an IC50 under setting [1] of more than 100 nM. In turn, `O=C(NCc1cc(Cl)cc(Cl)c1)c1cnc(N2CCN(C3CCN(Cc4ccc(Cl)cc4)CC3)CC2)c(Cl)c1` [compound 52] registered a concentration for half-maximal inhibition (IC50) under setting [1] of more than 100 nM. With `O=C(NCc1ccc(F)c(F)c1)c1cnc(N2CC3CC2CN3C2CCN(Cc3ccc(Cl)cc3)CC2)c(Cl)c1` (stereo not drawn) [compound 170], under setting [1], the IC50 is more than 100 nM. In the case of `CC[C@H]1CN(c2ncc(C(=O)N(C)OC)cc2Cl)CCN1C1CCN(Cc2ccc(Cl)cc2F)CC1` [compound 343], under setting [1], the IC50 was more than 100 nM. With `CC[C@H]1CN(c2ncc(C(=O)NC)cc2Cl)CCN1C1CCN(C(=O)c2ccc(Br)cc2)CC1` [compound 245], under setting [1], the IC50 was less than 25 nM.

The molecule `CC[C@H]1CN(c2ncc(CNC3CC3)cc2Cl)CCN1C1CCN(Cc2ccc(Cl)cc2F)CC1` [compound 395] registered an IC50 under setting [1] of less than 25 nM. Under setting [1], `CC[C@H]1CN(c2ncc(C(=O)NCc3ccc(F)c(F)c3)cc2Cl)CCN1C1CCN(Cc2ccc(Cl)cc2)CC1` [compound 221] returned an IC50 of less than 25 nM. For `O=C(NCc1ccc(F)cc1)c1cnc(N2CCN(C3CCN(Cc4ccc(Br)cc4)CC3)CC2)c(Cl)c1` [compound 113], the IC50 under setting [1] lay in the range of 25 to 100 nM. On to `CC1(N2CCN(c3ncc(C(=O)NCC4CCCCC4)cc3Cl)CC2)CCN(Cc2ccc(Cl)cc2)CC1` [compound 202], for which the IC50 under setting [1] was in the range of 25 to 100 nM.

As to `O=C(NCc1cccc(Cl)c1)c1cnc(N2CCN(C3CCN(Cc4ccc([N+](=O)[O-])cc4)CC3)CC2)c(Cl)c1` [compound 148], the IC50 under setting [1] is 25 to 100 nM.

Regarding `C[C@H]1CN(c2ncc(C(=O)N3CCCCC3)cc2Cl)CCN1C1CCN(Cc2ccc(Cl)cc2)CC1` [compound 355], under setting [1], the IC50 was more than 100 nM. Under setting [1], `O=C(NCCOc1ccccc1)c1cnc(N2CCN(C3CCN(Cc4ccc(Cl)c(Cl)c4)CC3)CC2)c(Cl)c1` [compound 49] displayed an IC50 of more than 100 nM. Molecule `N#Cc1ccc(CN2CCC(N3CCN(c4ncc(C(=O)NCc5ccccc5)cc4Cl)CC3)CC2)cc1` [compound 21] showed an IC50 under setting [1] of more than 100 nM. `C[C@H]1CN(c2ncc(C(=O)NCc3ccc(F)c(F)c3)cc2Cl)CCN1C1CCN(Cc2ccc(C#N)cc2)CC1` [compound 234]: under setting [1], the half-maximal inhibitory concentration (IC50) was less than 25 nM. The same measure, in the same setting: the value for `CC[C@H]1CN(c2ncc(C(N)=O)cc2Cl)CCN1C1CCN(C(=O)c2ccc(Cl)cc2N2CCOC2=O)CC1` [compound 146] was 25 to 100 nM; that for `O=C(NCc1ccc(F)cc1)c1cnc(N2CCN(C3CCN(Cc4ccc(F)cc4)CC3)CC2)c(Cl)c1` [compound 55] was more than 100 nM. `O=C(NCc1ccccc1)c1cnc(N2CCN(C3CCN(Cc4ccc([N+](=O)[O-])cc4)CC3)CC2)c(Cl)c1` [compound 75] had an IC50 under setting [1] of more than 100 nM. `O=C(NCc1ccc(F)c(Cl)c1)c1cnc(N2CCN(C3CCN(Cc4ccc(F)cc4F)CC3)CC2)c(Cl)c1` [compound 102] came in with an IC50 under setting [1] of 25 to 100 nM. Same read-out and setting: the value for `CCOC(CNC(=N)c1cnc(N2CCN(C3CCN(Cc4ccc(Cl)cc4F)CC3)[C@@H](CC)C2)c(Cl)c1)OCC` [compound 422] was 25 to 100 nM.

Under setting [1], `N#Cc1ccc(C(=O)N2CCC(N3CCN(c4ncc(C(=O)NCc5ccc(C(F)(F)F)cc5)cc4Br)CC3)CC2)cc1` [compound 70] came in with an IC50 of more than 100 nM. Take `COc1ccc(CN2CCC(N3CCN(c4ncc(C(=O)NCc5ccc(F)c(F)c5)cc4Cl)CC3)CC2)cc1` [compound 116]: the IC50 under setting [1] is 25 to 100 nM. Under setting [1], `CC[C@H]1CN(c2ncc(CNC(=O)NCC(F)(F)F)cc2Cl)CCN1C1CCN(C(=O)c2ccc(Br)cc2)CC1` [compound 396] returned an IC50 of less than 25 nM. Under setting [1], `O=C(NCc1cccc(Cl)c1)c1cnc(N2CCN(C3CCN(Cc4ccc(F)cc4)CC3)CC2)c(Cl)c1` [compound 57] came in with an IC50 of more than 100 nM. Under setting [1], `O=C(NCc1ccc(C(F)(F)F)cc1)c1cnc(N2CCN(C3CCN(Cc4ccc(Br)cc4)CC3)CC2)c(Br)c1` [compound 325] showed an IC50 of more than 100 nM. The molecule `N#Cc1ccc(CN2CCC(N3CCN(c4ncc(C(=O)NCc5ccccc5F)cc4Cl)CC3)CC2)cc1` [compound 6] gave an IC50 under setting [1] of more than 100 nM. Consider `CC[C@H]1CN(c2ncc(CNC(=N)N)cc2Cl)CCN1C1CCN(Cc2ccc(Cl)cc2F)CC1` [compound 394], for which, under setting [1], the IC50 was less than 25 nM. Same read-out and setting: the value for `CCNC(=O)NCc1cnc(N2CCN(C3CCN(Cc4ccc(Cl)cc4F)CC3)[C@@H](CC)C2)c(Cl)c1` [compound 368] was less than 25 nM. Under setting [1], `CCNC(=N)c1cnc(N2CCN(C3CCN(Cc4ccc(Cl)cc4)CC3)[C@@H](C)C2)c(Cl)c1` [compound 430] displayed an IC50 of 25 to 100 nM. Under setting [1], `CC[C@H]1CN(c2ncc(C(O)c3ncco3)cc2Cl)CCN1C1CCN(Cc2ccc(Cl)cc2F)CC1` (stereo partly drawn) [compound 437] yielded an IC50 of more than 100 nM. For the molecule `O=C(NCc1cccc(F)c1)c1cnc(N2CCN(C3CCN(Cc4ccc(Br)cc4)CC3)CC2)c(Cl)c1` [compound 100], under setting [1], the 50% inhibitory concentration (IC50) fell in the range of 25 to 100 nM. `COc1ccc(CN2CCC(N3CCN(c4ncc(C(=O)NCc5ccc(F)c(Cl)c5)cc4Cl)CC3)CC2)cc1` [compound 117] gave an IC50 under setting [1] of 25 to 100 nM. Under setting [1], `O=C(NCc1ccc(F)c(F)c1)c1cnc(N2CCN(C3CCN(Cc4ccc(Br)cc4)CC3)CC2)c(Br)c1` [compound 265] displayed an IC50 of less than 25 nM. As for `CNC(=O)c1cnc(N2CCN(C3CCN(Cc4ccc(Cl)cc4)C(C)C3)[C@@H](C)C2)c(Cl)c1` (stereo partly drawn) [compound 159], the IC50 under setting [1] is 25 to 100 nM. For the molecule `CC[C@H]1CN(c2ncc(CN(C(=O)Nc3c(C)noc3C)C(=O)Nc3c(C)noc3C)cc2Cl)CCN1C1CCN(Cc2ccc(Cl)cc2F)CC1` [compound 445], the IC50 under setting [1] is more than 100 nM. Molecule `O=C(NCc1ccc(F)cc1F)c1cnc(N2CCN(C3CCN(Cc4ccc(Br)cc4)CC3)CC2)c(Cl)c1` [compound 79] displayed an IC50 under setting [1] of more than 100 nM. In turn, `CC[C@H]1CN(c2ncc(CN/C(=N\C#N)NC)cc2Cl)CCN1C1CCN(Cc2ccc(Cl)cc2F)CC1` [compound 403] came in with an IC50 under setting [1] of less than 25 nM.

As for `CCNC(=O)c1cnc(N2CCN(C3CCN(Cc4ccc(Cl)cc4)CC3)[C@@H](C(C)C)C2)c(Cl)c1` [compound 210], the IC50 under setting [1] is less than 25 nM. Still for that read-out and setting: the value for `CCNC(=O)c1cnc(N2CCN(C3CCN(Cc4ccc(I)cc4)CC3)[C@@H](CC)C2)c(Cl)c1` [compound 218] was less than 25 nM; that for `CC[C@H]1CN(c2ncc(CNc3nccs3)cc2Cl)CCN1C1CCN(Cc2ccc(Cl)cc2F)CC1` [compound 407] was less than 25 nM; that for `CC[C@H]1CN(c2ncc(CNC(=S)NC3CC3)cc2Cl)CCN1C1CCN(Cc2ccc(Cl)cc2F)CC1` [compound 374] was less than 25 nM.

With `CC(C)CNC(=O)c1cnc(N2CCN(C3CCN(Cc4ccc(Cl)cc4)CC3)CC2)c(Cl)c1` [compound 181], under setting [1], the IC50 is more than 100 nM. Under setting [1], `C[C@@H]1CN(c2ncc(C(=O)NCC3CCCCC3)cc2Cl)CCN1C1CCN(Cc2ccc(C#N)cc2)CC1` [compound 300] yielded an IC50 of 25 to 100 nM. On to `CC(c1ccc(C#N)cc1)N1CCC(N2CCN(c3ncc(C(=O)NCc4ccc(Cl)c(Cl)c4)cc3Cl)CC2)CC1` (stereo not drawn) [compound 32], for which the IC50 under setting [1] was more than 100 nM. Turning to `CC(C)NC(=O)c1cnc(N2CCN(C3CCN(Cc4ccc(Cl)cc4)CC3)CC2)c(Cl)c1` [compound 180], the IC50 under setting [1] is more than 100 nM. For the molecule `CNC(=O)c1cnc(N2CCN(C3CCN(/C(=N\C#N)c4ccc(Cl)cc4)CC3)[C@@H](C)C2)c(Cl)c1` [compound 359], the IC50 under setting [1] is more than 100 nM.

Consider `CCNC(=O)c1cnc(N2CCN(C3CCN(C(=O)c4ccc(-n5cccc5)cc4)CC3)[C@@H](CC)C2)c(Cl)c1` [compound 262], for which, under setting [1], the IC50 was less than 25 nM.

`Cc1cc(C(=O)NCC2CCCCC2)cnc1N1CCN(C2CCN(Cc3ccc(Cl)cc3)CC2)CC1` [compound 203] registered an IC50 under setting [1] of more than 100 nM. Consider `CCNC(=O)c1cnc(N2CCN(C3CCN(Cc4ccc(Cl)cc4F)CC3)[C@@H](CC)C2)c(Cl)c1` [compound 212], for which the IC50 reads like this: under setting [1], less than 25 nM; (value given in text as example) 0.2 nM.

As to `O=C(NCc1ccc(Br)cc1)c1cnc(N2CCN(C3CCN(Cc4ccc(Cl)c(F)c4)CC3)CC2)c(Cl)c1` [compound 293], the IC50 under setting [1] lay in the range of 25 to 100 nM. As to `N#Cc1ccc(C(=O)N2CCC(N3CCN(c4ncc(C(=O)NCCOc5ccccc5)cc4Br)CC3)CC2)cc1` [compound 329], under setting [1], the IC50 is more than 100 nM.

The molecule `CC(c1ccc(Cl)cc1)N1CCC(N2CCN(c3ncc(C(=O)NCc4ccc(F)c(F)c4)cc3Cl)CC2)CC1` (stereo not drawn) [compound 46] returned an IC50 under setting [1] of more than 100 nM. On to `CC[C@H]1CN(c2ncc(CO)cc2Cl)CCN1C1CCN(Cc2ccc(Cl)cc2F)CC1` [compound 392], for which the IC50 under setting [1] is less than 25 nM. In the case of `O=C(NCc1ccc(F)c(Cl)c1)c1cnc(N2CCN(C3CCN(Cc4ccc(Br)cc4F)CC3)CC2)c(Cl)c1` [compound 33], the IC50 under setting [1] is more than 100 nM. `CC[C@H]1CN(c2ncc(C(=O)NC(C)C)cc2Cl)CCN1C1CCN(C(=O)c2ccc(C#N)cc2)CC1` [compound 287] displayed an IC50 under setting [1] of 25 to 100 nM. With `O=C(NCCOc1ccccc1)c1cnc(N2CCN(C3CCN(Cc4ccc(F)cc4F)CC3)CC2)c(Cl)c1` [compound 16], the half-inhibitory concentration (IC50) under setting [1] is more than 100 nM.

In turn, `O=C(NCCc1c[nH]c2ccccc12)c1cnc(N2CCN(C3CCN(Cc4ccc(Cl)cc4)CC3)CC2)c(Cl)c1` [compound 364] returned an IC50 under setting [1] of more than 100 nM. `CC[C@H]1CN(c2ncc(CO)cc2Cl)CCN1C1CCN(C(=O)c2ccccc2)CC1` [compound 448] registered an IC50 under setting [1] of more than 100 nM.
